The term inhibition denotes the drop in the measured response relative to a control, in per cent.

31 compounds from patent US9315491B2 (DEVELOPMENT CENTER FOR BIOTECHNOLOGY, priority 2009, dated 2016) can be followed below.

Chain of recombinant mTOR (P42345 1360-2549): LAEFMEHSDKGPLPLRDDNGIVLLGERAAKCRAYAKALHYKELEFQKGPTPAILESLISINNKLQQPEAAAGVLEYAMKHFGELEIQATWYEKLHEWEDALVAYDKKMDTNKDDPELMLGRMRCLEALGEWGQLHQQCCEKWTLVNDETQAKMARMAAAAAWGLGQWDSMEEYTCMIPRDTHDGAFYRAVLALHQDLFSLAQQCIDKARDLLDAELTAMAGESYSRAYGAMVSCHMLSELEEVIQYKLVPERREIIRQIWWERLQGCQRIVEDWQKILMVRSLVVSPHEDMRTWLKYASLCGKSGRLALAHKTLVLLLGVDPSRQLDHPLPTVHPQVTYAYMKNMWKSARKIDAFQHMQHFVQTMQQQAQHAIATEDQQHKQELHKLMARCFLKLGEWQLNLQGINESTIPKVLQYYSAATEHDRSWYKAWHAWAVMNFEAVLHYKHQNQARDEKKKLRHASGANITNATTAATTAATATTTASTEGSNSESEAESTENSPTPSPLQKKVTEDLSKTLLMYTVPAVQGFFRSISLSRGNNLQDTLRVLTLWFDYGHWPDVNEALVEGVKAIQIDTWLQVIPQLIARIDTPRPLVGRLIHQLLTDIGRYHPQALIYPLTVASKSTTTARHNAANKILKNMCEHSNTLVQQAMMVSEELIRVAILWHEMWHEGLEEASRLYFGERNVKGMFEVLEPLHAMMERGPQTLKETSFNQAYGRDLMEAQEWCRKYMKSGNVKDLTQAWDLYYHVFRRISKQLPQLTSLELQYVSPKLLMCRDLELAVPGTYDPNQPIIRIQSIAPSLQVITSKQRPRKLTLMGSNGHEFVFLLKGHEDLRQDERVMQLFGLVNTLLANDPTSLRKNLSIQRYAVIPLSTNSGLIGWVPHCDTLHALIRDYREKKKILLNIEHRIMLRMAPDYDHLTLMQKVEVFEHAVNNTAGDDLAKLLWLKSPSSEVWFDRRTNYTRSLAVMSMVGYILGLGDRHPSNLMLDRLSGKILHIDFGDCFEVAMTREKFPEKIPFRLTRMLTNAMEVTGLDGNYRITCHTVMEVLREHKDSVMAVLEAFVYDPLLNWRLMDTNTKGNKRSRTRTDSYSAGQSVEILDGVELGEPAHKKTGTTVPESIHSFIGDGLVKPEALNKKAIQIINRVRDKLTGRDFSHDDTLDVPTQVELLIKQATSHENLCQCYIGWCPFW
Chain of PI3K (p110α/p85α) (P42336 whole entry, species assumed): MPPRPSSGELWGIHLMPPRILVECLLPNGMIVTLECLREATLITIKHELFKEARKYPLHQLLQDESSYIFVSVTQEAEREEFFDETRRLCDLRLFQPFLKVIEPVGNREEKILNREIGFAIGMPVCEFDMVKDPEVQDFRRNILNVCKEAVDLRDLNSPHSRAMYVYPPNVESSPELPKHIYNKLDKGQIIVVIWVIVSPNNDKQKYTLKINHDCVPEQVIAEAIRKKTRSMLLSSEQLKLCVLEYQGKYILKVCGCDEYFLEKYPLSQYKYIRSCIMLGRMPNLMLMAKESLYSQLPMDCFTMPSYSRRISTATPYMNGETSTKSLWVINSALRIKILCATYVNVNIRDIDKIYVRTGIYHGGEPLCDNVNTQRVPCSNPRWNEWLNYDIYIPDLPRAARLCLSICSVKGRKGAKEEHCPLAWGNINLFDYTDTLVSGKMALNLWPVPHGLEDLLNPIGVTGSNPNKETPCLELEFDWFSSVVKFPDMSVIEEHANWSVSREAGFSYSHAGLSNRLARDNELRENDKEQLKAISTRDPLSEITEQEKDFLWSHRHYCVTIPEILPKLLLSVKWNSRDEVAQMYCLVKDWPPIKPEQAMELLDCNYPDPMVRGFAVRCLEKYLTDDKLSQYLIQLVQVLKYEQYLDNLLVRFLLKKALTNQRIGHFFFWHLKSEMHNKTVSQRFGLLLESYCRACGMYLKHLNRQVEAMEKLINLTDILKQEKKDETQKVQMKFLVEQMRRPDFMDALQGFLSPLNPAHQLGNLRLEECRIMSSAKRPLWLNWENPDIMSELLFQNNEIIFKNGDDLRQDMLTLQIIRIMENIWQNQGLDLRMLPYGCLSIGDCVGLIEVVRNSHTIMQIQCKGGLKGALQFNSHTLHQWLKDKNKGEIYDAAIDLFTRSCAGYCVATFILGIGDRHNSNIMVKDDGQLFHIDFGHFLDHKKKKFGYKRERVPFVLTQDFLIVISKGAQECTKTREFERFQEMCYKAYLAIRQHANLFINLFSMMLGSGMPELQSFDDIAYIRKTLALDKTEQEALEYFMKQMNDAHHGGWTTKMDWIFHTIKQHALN
Chain of PI3K (p110α/p85α) (P27986 whole entry partner, species assumed): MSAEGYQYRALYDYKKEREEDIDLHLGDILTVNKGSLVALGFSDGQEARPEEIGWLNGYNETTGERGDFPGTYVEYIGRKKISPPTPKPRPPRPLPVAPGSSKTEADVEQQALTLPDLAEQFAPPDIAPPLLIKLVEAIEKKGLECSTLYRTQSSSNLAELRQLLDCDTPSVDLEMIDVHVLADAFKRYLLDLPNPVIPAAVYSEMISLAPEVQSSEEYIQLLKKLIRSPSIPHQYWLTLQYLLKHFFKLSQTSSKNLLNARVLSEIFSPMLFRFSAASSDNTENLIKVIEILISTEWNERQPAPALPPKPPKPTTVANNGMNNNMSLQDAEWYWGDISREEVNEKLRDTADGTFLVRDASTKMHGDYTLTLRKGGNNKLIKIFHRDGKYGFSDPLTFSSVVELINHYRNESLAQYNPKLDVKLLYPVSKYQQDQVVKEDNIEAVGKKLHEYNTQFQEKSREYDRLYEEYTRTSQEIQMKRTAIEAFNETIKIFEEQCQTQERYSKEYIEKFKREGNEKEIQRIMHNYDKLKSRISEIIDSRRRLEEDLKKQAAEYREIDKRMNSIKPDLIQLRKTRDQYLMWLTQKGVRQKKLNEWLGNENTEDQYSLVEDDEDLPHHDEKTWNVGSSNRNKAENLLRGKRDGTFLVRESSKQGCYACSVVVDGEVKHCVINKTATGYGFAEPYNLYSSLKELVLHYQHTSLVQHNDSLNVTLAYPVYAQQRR

For the first test, the target named is recombinant mTOR (Homo sapiens (Human), UniProt P42345). In words: mTOR kinase assay (33P incorporation into 4EBP1). The test is classed as biochemical. To be noted: compound at 10 μM, 10 μM ATP. The method, boiled down:
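Recombinant human mTOR (50 ng) phosphorylated His-tagged 4EBP1 (300 ng) with 10 μM ATP plus [γ-33P]-ATP in HEPES pH 7.5, MnCl2, EGTA and DTT for 30 min at 30° C. Labelled 4EBP1 was filter-captured and counted. IC50 was derived from eight-point duplicate dilution series.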
As to `CSc1c(Cl)nc(-c2ccc(NC(=O)Nc3ccc(S(N)(=O)=O)cc3)c(F)c2)nc1N1CCOCC1` [MTR-0410, 4-{3-[4-(4-Chloro-5-methylsulfanyl-6-morpholin-4-yl-pyrimidin-2-yl)-2-fluoro-phenyl]-ureido}-benzenesulfonamide], the inhibition at 10 µM was 85%.

As to `CSc1c(Cl)nc(-c2ccc(NC(=O)Nc3ccc(C(N)=O)cc3)cc2F)nc1N1CCOCC1` [MTR-0411, 4-{3-[4-(4-Chloro-5-methylsulfanyl-6-morpholin-4-yl-pyrimidin-2-yl)-3-fluoro-phenyl]-ureido}-benzamide], the inhibition at 10 µM came to 93%.

Take `CSc1c(Cl)nc(-c2ccc(NC(=O)Nc3ccc(NC(C)=O)nc3)cc2)nc1N1CCOCC1` [MTR-0415, N-(5-{3-[4-(4-Chloro-5-methylsulfanyl-6-morpholin-4-yl-pyrimidin-2-yl)-phenyl]-ureido}-pyridin-2-yl)-acetamide]: the inhibition at 10 µM was 81%.

For the compound `CCOC(=O)c1nc(-c2ccc(NC(=O)Nc3ccc(N4CCN(S(C)(=O)=O)CC4)cc3)cc2)nc(N2CCOCC2)c1OCC` [MTR-0419, 5-Ethoxy-2-(4-{3-[4-(4-methanesulfonyl-piperazin-1-yl)-phenyl]-ureido}-phenyl)-6-morpholin-4-yl-pyrimidine-4-carboxylic acid ethyl ester], the inhibition at 10 µM was 82%.

Regarding `CCOC(=O)c1nc(-c2ccc(NC(=O)Nc3ccc4[nH]c(=O)oc4c3)cc2)nc(N2CCOCC2)c1OCC` [MTR-0423, 5-Ethoxy-6-morpholin-4-yl-2-{4-[3-(2-oxo-2,3-dihydro-benzooxazol-6-yl)-ureido]-phenyl}-pyrimidine-4-carboxylic acid ethyl ester], the inhibition at 10 µM is 95%.

For `CSc1cnc(-c2ccc(NC(=O)Nc3ccc(N4CCN(S(C)(=O)=O)CC4)cc3)cc2)nc1N1CCOCC1` [MTR-0430, 1-[4-(4-Methanesulfonyl-piperazin-1-yl)-phenyl]-3-[4-(5-methylsulfanyl-4-morpholin-4-yl-pyrimidin-2-yl)-phenyl]-urea], the inhibition at 10 µM worked out at 86%.

For `CSc1c(Cl)nc(-c2ccc(NC(=O)Nc3ccc(S(=O)(=O)N4CCOCC4)cc3)cc2)nc1N1CCOCC1` [MTR-0435, 1-[4-(4-Chloro-5-methylsulfanyl-6-morpholin-4-yl-pyrimidin-2-yl)-phenyl]-3-[4-(morpholine-4-sulfonyl)-phenyl]-urea], the inhibition at 10 µM is 90%.

Take `CSc1c(-c2cccnc2)nc(-c2ccc(NC(=S)Nc3ccccc3)cc2)nc1N1CCOCC1` [MTR-0440, 1-[4-(5-Methylsulfanyl-4-morpholin-4-yl-6-pyridin-3-yl-pyrimidin-2-yl)-phenyl]-3-phenyl-thiourea]: the inhibition at 10 µM was found to be 89%.

For `CSc1cnc(-c2ccc(NC(=O)Nc3ccc4[nH]c(=O)oc4c3)cc2)nc1N1CCOCC1` [MTR-0459, 1-[4-(5-Methylsulfanyl-4-morpholin-4-yl-pyrimidin-2-yl)-phenyl]-3-(2-oxo-2,3-dihydro-benzooxazol-6-yl)-urea], the inhibition at 10 µM was determined as 88%.

As to `CSc1c(-c2ccncc2)nc(-c2ccc(NC(=S)Nc3ccccc3)cc2)nc1N1CCOCC1` [MTR-0468, 1-[4-(5-Methylsulfanyl-4-morpholin-4-yl-6-pyridin-4-yl-pyrimidin-2-yl)-phenyl]-3-phenyl-thiourea], the inhibition at 10 µM was 97%.

With `COc1cnc(-c2ccc(NC(=O)Nc3ccc(S(C)(=O)=O)cc3)cc2)nc1N1CCOCC1` [MTR-0470, 1-(4-Methanesulfonyl-phenyl)-3-[4-(5-methoxy-4-morpholin-4-yl-pyrimidin-2-yl)-phenyl]-urea], the inhibition at 10 µM is 88%.

For the compound `COc1cnc(-c2ccc(NC(=O)Nc3ccc(N4CCOCC4=O)cc3)cc2)nc1-c1ccncc1` [MTR-0474, 1-[4-(5-Methoxy-4-pyridin-4-yl-pyrimidin-2-yl)-phenyl]-3-[4-(3-oxo-morpholin-4-yl)-phenyl]-urea], the inhibition at 10 µM worked out at 88%.

On to `CSc1c(-c2ccncc2)nc(-c2ccc(NC(=O)NC(C)C)cc2)nc1N1CCOCC1` [MTR-0479, 1-Isopropyl-3-[4-(5-methylsulfanyl-4-morpholin-4-yl-6-pyridin-4-yl-pyrimidin-2-yl)-phenyl]-urea], for which the inhibition at 10 µM was determined as 95%.

For the compound `COc1cnc(-c2ccc(NC(=O)Nc3ccncc3)cc2)nc1-c1ccncc1` [MTR-0480, 1-[4-(5-Methoxy-4-pyridin-4-yl-pyrimidin-2-yl)-phenyl]-3-pyridin-4-yl-urea], the inhibition at 10 µM was 90%.

Consider `COc1c(-c2ccc(N)cc2)nc(-c2ccc(N)cc2)nc1N1CCOCC1` [MTR-0483], for which the “% Inhibition @ 10 μM” value amounted to 88%.

In the case of `CSc1c(-c2ccncc2)nc(-c2ccc(NC(=O)Nc3ccon3)cc2)nc1N1CCOCC1` [MTR-0485, 1-Isoxazol-3-yl-3-[4-(5-methylsulfanyl-4-morpholin-4-yl-6-pyridin-4-yl-pyrimidin-2-yl)-phenyl]-urea], the inhibition at 10 µM came out at 100%.

Consider `COc1cnc(-c2ccc(NC(=O)Nc3ccc(NC(C)=O)nc3)cc2)nc1N1CCOCC1` [MTR-0486, N-(5-{3-[4-(5-Methoxy-4-morpholin-4-yl-pyrimidin-2-yl)-phenyl]-ureido}-pyridin-2-yl)-acetamide], for which the inhibition at 10 µM is 88%.

Take `CCOc1c(-c2cccnc2)nc(-c2ccc(NC(=O)Nc3ccncc3)cc2)nc1N1CCOCC1` [MTR-0490, 1-[4-(5-Ethoxy-4-morpholin-4-yl-6-pyridin-3-yl-pyrimidin-2-yl)-phenyl]-3-pyridin-4-yl-urea]: the inhibition at 10 µM was 102%.

As for `CCOc1c(-c2cccnc2)nc(-c2ccc(NC(=O)Nc3cccnc3)cc2)nc1N1CCOCC1` [MTR-0491, 1-[4-(5-Ethoxy-4-morpholin-4-yl-6-pyridin-3-yl-pyrimidin-2-yl)-phenyl]-3-pyridin-3-yl-urea], the inhibition at 10 µM was determined as 100%.

`CCOc1c(-c2ccncc2)nc(-c2ccc(NC(=O)Nc3ccncc3)cc2)nc1N1CCOCC1` [MTR-0492, 1-[4-(5-Ethoxy-4-morpholin-4-yl-6-pyridin-4-yl-pyrimidin-2-yl)-phenyl]-3-pyridin-4-yl-urea]: the inhibition at 10 µM stood at 100%.

In the case of `CCOc1c(-c2ccncc2)nc(-c2ccc(NC(=O)Nc3cccnc3)cc2)nc1N1CCOCC1` [MTR-0493, 1-[4-(5-Ethoxy-4-morpholin-4-yl-6-pyridin-4-yl-pyrimidin-2-yl)-phenyl]-3-pyridin-3-yl-urea], the inhibition at 10 µM is 99%.

For `CCOc1c(Cl)nc(-c2ccc(NC(=O)Nc3ccc(N4CCOCC4=O)cc3)cc2)nc1N1CCOCC1` [MTR-0494, 1-[4-(4-Chloro-5-ethoxy-6-morpholin-4-yl-pyrimidin-2-yl)-phenyl]-3-[4-(3-oxo-morpholin-4-yl)-phenyl]-urea], the inhibition at 10 µM was found to be 86%.

Regarding `CCOc1c(-c2ccncc2)nc(-c2ccc(NC(=O)Nc3ccc(N4CCOCC4=O)cc3)cc2)nc1N1CCOCC1` [MTR-0495, 1-[4-(5-Ethoxy-4-morpholin-4-yl-6-pyridin-4-yl-pyrimidin-2-yl)-phenyl]-3-[4-(3-oxo-morpholin-4-yl)-phenyl]-urea], the inhibition at 10 µM was found to be 100%.

Consider `CCOc1c(-c2cccnc2)nc(-c2ccc(NC(=O)Nc3ccc(N4CCOCC4=O)cc3)cc2)nc1N1CCOCC1` [MTR-0496, 1-[4-(5-Ethoxy-4-morpholin-4-yl-6-pyridin-3-yl-pyrimidin-2-yl)-phenyl]-3-[4-(3-oxo-morpholin-4-yl)-phenyl]-urea], for which the inhibition at 10 µM came out at 95%.

For the next test, the target named is PI3K (p110α/p85α) (Homo sapiens (Human), UniProt P42336). Description: PI3K HTRF enzyme assay, p110α/p85α. Format: biochemical. To be noted: read-out: % inhibition @ 500 nM p110α; compound at 500 nM, 10 μM ATP. The method, then:
Recombinant PI3K (p110α/p85α) and PI3K (p110β/p85α) were from Millipore. […] Briefly, the compounds of interest dissolved in 100% DMSO were dispensed in all wells, following which the mixture of PIP2 and enzyme was added. PI3K (p110α/p85α) and PI3K (p110β/p85α) enzyme reactions were initiated in the presence of 10 μM and 100 μM ATP, respectively, and incubated for 30 min at room temperature. STOP solution prepared 2 hours prior to use was added to stop reactions, and mixed well. Detection solution prepared 2 hours prior to use was added, and incubated at room temperature for 17 hours in the dark. […] HTRF ration was calculated as follows: […]
In general terms: TR-FRET usually uses a lanthanide donor and a delayed reading to cut background.
Consider `CCOC(=O)c1nc(-c2ccc(NC(=O)Nc3ccccc3)cc2)nc(N2CCOCC2)c1OCC` [MTR-0069, 5-Ethoxy-6-morpholin-4-yl-2-[4-(3-phenyl-ureido)-phenyl]-pyrimidine-4-carboxylic acid ethyl ester], for which the inhibition at 0.5 µM was 53.8%.

As to `CSc1c(Cl)nc(-c2ccc(NC(N)=O)cc2)nc1N1CCOCC1` [MTR-0083, [4-(4-Chloro-5-methylsulfanyl-6-morpholin-4-yl-pyrimidin-2-yl)-phenyl]-urea], the inhibition at 0.5 µM amounted to 44.8%.

On to `CCOc1c(C(=O)N2CCOCC2)nc(-c2ccc(NC(=O)Nc3ccccc3)cc2)nc1N1CCOCC1` [MTR-0124, 1-{4-[5-Ethoxy-4-(morpholine-4-carbonyl)-6-morpholin-4-yl-pyrimidin-2-yl]-phenyl}-3-phenyl-urea], for which the inhibition at 0.5 µM amounted to 49.1%.

Regarding `COc1cnc(-c2ccc(NC(=O)Nc3ccccc3)cc2)nc1N1CCOCC1` [MTR-0128, 1-[4-(5-Methoxy-4-morpholin-4-yl-pyrimidin-2-yl)-phenyl]-3-phenyl-urea], the inhibition at 0.5 µM is 85.8%.

Regarding `COc1cnc(-c2ccc(NC(=O)Nc3ccc(F)cc3)cc2)nc1N1CCOCC1` [MTR-0152, 1-(4-Fluoro-phenyl)-3-[4-(5-methoxy-4-morpholin-4-yl-pyrimidin-2-yl)-phenyl]-urea], the inhibition at 0.5 µM is 83%.

In the case of `COc1cnc(-c2ccc(NC(=O)Nc3ccc(F)c(F)c3)cc2)nc1N1CCOCC1` [MTR-0165, 1-(3,4-Difluoro-phenyl)-3-[4-(5-methoxy-4-morpholin-4-yl-pyrimidin-2-yl)-phenyl]-urea], the inhibition at 0.5 µM was determined as 101%.

Consider `CSc1c(N2CCOCC2)nc(-c2ccc(NC(=O)Nc3ccccc3)cc2)nc1N1CCN(S(C)(=O)=O)CC1` [MTR-0173, 1-{4-[4-(4-Methanesulfonyl-piperazin-1-yl)-5-methylsulfanyl-6-morpholin-4-yl-pyrimidin-2-yl]-phenyl}-3-phenyl-urea], for which the inhibition at 0.5 µM was found to be 82.1%.
